Assay results: ChEMBL document CHEMBL5465560, “Selectivity Literature for EUbOPEN Chemogenomic Library” (2024)

Assays:
[1] = target: Cyclin-dependent kinase 5/CDK5 activator 1 (Homo sapiens) (UniProt Q00535+Q15078); assay: Selectivity interaction (Millipore kinase profiler) EUB0000124b CDK5; type: protein-complex assay; details: at 10 µM
[2] = target: RAF proto-oncogene serine/threonine-protein kinase (Homo sapiens) (UniProt P04049); assay: Selectivity interaction (KinomeScan (DiscoverX)) EUB0000666a RAF1; details: at 10 µM
[3] = target: Bone morphogenetic protein receptor type-1A (Homo sapiens, UniProt P36894); assay: Selectivity interaction (KinomeScan (DiscoverX)) EUB0000666a BMPR1A; details: at 10 µM
[4] = target: Calcium/calmodulin-dependent protein kinase kinase 2 (Homo sapiens) (UniProt Q96RR4); assay: Selectivity interaction (KinomeScan (DiscoverX)) EUB0001079a CAMKK2; details: at 1 µM
[5] = target: 5-hydroxytryptamine receptor 5A (Homo sapiens) (UniProt P47898); assay: Selectivity interaction (GPCR panel (PDSP screen)) EUB0001079a HTR5A; details: at 10 µM
[6] = target: Ribosomal protein S6 kinase alpha-6 (Homo sapiens, UniProt Q9UK32); assay: Selectivity interaction (KinomeScan (DiscoverX)) EUB0001079a RPS6KA6; details: at 1 µM
[7] = target: 5'-AMP-activated protein kinase catalytic subunit alpha-1 (Homo sapiens, UniProt Q13131); assay: Selectivity interaction (Kinase panel (Invitrogen)) EUB0000639a PRKAA1; details: at 200 nM
[8] = target: Ribosomal protein S6 kinase alpha-3 (Homo sapiens, UniProt P51812); assay: Selectivity interaction (ActivX KiNativ screen (kinase selectivity in THP-1 cell lysates)) EUB0000639a RPS6KA3; type: subcellular; details: lysate, at 0.04 µM
[9] = target: TRAF2 and NCK-interacting protein kinase (Homo sapiens) (UniProt Q9UKE5); assay: Selectivity interaction (KinomeScan (DiscoverX)) EUB0000595a TNIK; details: at 10 µM
[10] = target: T1, Membrane-associated tyrosine- and threonine-specific cdc2-inhibitory kinase (Homo sapiens) (UniProt Q99640); assay: Selectivity interaction (KinomeScan (DiscoverX)) EUB0000618a PKMYT1; details: at 10 µM
T1 sequence (whole entry): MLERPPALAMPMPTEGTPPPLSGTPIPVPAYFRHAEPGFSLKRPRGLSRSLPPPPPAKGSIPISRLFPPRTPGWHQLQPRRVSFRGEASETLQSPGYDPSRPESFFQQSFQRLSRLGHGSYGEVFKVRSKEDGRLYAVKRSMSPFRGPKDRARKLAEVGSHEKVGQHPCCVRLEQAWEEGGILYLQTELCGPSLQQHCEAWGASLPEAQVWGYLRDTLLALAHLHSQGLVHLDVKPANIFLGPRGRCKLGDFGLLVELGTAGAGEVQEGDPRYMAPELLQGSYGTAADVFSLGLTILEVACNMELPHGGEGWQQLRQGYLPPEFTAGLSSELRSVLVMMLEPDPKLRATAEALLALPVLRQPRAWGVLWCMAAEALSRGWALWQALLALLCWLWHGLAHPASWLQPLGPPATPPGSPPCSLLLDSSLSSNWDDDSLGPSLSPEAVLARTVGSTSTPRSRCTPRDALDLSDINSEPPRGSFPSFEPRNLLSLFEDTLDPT

[11] = target: Atypical kinase COQ8A, mitochondrial (Homo sapiens, UniProt Q8NI60); assay: Selectivity interaction (KinomeScan (DiscoverX)) EUB0000618a ADCK3; details: at 10 µM
[12] = target: Calcium/calmodulin-dependent protein kinase type II subunit gamma (Homo sapiens) (UniProt Q13555); assay: Selectivity interaction (ActivX KiNativ screen (ex vivo kinase selectivity in human PBMCs)) EUB0001619a CAMK2G; type: cell-based; details: PBMC, at 1 µM
[13] = target: Tyrosine-protein kinase JAK1 (Homo sapiens, UniProt P23458); assay: Selectivity interaction (ActivX KiNativ screen (ex vivo kinase selectivity in human PBMCs)) EUB0001619a JAK1; type: cell-based; details: PBMC, at 1 µM
[14] = target: Tyrosine-protein kinase BTK (Homo sapiens, UniProt Q06187); assay: Selectivity interaction (ActivX KiNativ screen (ex vivo kinase selectivity in human PBMCs)) EUB0001619a BTK; type: cell-based; details: PBMC, at 1 µM
[15] = target: Ribosomal protein S6 kinase beta-1 (Homo sapiens, UniProt P23443); assay: Selectivity interaction (Upstate Kinase Profiler service (Millipore)) EUB0000056c RPS6KB1; details: at 1 µM
[16] = target: [Pyruvate dehydrogenase (acetyl-transferring)] kinase isozyme 1, mitochondrial (Homo sapiens, UniProt Q15118); assay: Selectivity interaction (Upstate Kinase Profiler service (Millipore)) EUB0000056c PDK1; details: at 1 µM
[17] = target: SRSF protein kinase 3 (Homo sapiens) (UniProt Q9UPE1); assay: Selectivity interaction (KinomeScan (DiscoverX)) EUB0000655a SRPK3; details: at 10 µM
[18] = target: Platelet-derived growth factor receptor alpha (Homo sapiens, UniProt P16234); assay: Selectivity interaction (KinomeScan (DiscoverX)) EUB0000607a PDGFRA; details: at 10 µM
[19] = system: Epidermal growth factor receptor (Homo sapiens), P00533 [L858R]; assay: (§1) Selectivity interaction (KinomeScan (DiscoverX)) EUB0000607a EGFR; details: at 10 µM
[20] = system: Epidermal growth factor receptor (Homo sapiens), P00533 [G719C]; assay: as §1; details: at 10 µM
[21] = system: Epidermal growth factor receptor (Homo sapiens), P00533 [UNDEFINED MUTATION]; assay: as §1; details: at 10 µM
[22] = system: Epidermal growth factor receptor (Homo sapiens), P00533 [G719S]; assay: as §1; details: at 10 µM
[23] = system: Epidermal growth factor receptor (Homo sapiens), P00533 [L858R,T790M]; assay: as §1; details: at 10 µM
[24] = target: Epidermal growth factor receptor (Homo sapiens, UniProt P00533); assay: as §1; details: at 10 µM
[25] = system: Epidermal growth factor receptor (Homo sapiens), P00533 [L861Q]; assay: as §1; details: at 10 µM
[26] = system: Epidermal growth factor receptor (Homo sapiens), P00533 [T790M]; assay: as §1; details: at 10 µM
[27] = target: Serine/threonine-protein kinase 33 (Homo sapiens) (UniProt Q9BYT3); assay: Selectivity interaction (KinomeScan (DiscoverX)) EUB0000607a STK33; details: at 10 µM
[28] = target: Casein kinase I isoform epsilon (Homo sapiens, UniProt P49674); assay: Selectivity interaction (SelectScreen profiling (Invitrogen)) EUB0000607a CSNK1E; details: at 2 µM
[29] = target: T2, Serine/threonine-protein kinase VRK1 (Homo sapiens) (UniProt Q99986); assay: Selectivity interaction (ProQinase) EUB0000171b VRK1
T2 sequence (whole entry): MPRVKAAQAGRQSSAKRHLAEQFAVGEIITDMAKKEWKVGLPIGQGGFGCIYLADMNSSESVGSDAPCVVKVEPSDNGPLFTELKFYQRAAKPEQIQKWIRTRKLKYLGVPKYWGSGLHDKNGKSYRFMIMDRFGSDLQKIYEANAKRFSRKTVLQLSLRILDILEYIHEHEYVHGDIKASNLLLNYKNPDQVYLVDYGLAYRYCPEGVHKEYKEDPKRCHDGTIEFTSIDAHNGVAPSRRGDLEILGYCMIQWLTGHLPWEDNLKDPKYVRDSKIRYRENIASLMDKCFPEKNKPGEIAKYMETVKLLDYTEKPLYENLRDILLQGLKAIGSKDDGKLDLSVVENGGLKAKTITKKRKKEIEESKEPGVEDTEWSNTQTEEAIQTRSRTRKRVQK

Chain of Cyclin-dependent kinase 5/CDK5 activator 1 (Homo sapiens) (Q00535 whole entry): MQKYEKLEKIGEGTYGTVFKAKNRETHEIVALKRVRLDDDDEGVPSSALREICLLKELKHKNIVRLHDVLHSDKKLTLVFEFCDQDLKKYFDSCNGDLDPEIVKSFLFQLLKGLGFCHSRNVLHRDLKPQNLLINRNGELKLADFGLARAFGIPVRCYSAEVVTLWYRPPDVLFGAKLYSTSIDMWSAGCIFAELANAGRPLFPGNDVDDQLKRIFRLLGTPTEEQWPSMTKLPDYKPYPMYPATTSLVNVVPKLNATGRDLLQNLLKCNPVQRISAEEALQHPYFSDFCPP
Chain of Cyclin-dependent kinase 5/CDK5 activator 1 (Homo sapiens) (Q15078 99-307 partner limits assumed): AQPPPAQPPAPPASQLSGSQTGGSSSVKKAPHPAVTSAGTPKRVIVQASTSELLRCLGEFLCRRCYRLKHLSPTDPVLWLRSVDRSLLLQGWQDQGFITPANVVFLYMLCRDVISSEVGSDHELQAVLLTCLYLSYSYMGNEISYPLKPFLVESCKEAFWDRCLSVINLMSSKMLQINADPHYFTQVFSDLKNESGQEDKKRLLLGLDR
Chain of Ribosomal protein S6 kinase alpha-6 (Q9UK32 whole entry): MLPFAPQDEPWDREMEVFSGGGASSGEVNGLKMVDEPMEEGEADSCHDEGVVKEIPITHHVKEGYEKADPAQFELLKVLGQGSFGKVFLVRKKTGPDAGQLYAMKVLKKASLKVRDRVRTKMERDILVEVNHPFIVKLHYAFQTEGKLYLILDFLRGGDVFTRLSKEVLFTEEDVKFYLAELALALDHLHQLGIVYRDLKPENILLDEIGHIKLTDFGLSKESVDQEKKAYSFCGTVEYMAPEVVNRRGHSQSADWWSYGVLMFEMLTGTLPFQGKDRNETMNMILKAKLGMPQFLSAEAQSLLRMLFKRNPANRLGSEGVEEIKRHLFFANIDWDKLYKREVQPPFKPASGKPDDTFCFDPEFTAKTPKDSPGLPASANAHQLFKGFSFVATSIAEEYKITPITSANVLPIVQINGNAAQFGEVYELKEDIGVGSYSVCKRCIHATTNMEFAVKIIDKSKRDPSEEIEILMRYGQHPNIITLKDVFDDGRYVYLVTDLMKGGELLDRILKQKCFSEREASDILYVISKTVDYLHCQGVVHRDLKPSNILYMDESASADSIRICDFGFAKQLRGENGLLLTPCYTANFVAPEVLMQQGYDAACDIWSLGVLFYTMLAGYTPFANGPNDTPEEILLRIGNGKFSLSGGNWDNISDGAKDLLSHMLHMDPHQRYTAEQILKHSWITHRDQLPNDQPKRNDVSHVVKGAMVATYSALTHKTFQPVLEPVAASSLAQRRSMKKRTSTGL
Chain of Epidermal growth factor receptor (Homo sapiens), P00533 [G719S] (P00533 whole entry G719S): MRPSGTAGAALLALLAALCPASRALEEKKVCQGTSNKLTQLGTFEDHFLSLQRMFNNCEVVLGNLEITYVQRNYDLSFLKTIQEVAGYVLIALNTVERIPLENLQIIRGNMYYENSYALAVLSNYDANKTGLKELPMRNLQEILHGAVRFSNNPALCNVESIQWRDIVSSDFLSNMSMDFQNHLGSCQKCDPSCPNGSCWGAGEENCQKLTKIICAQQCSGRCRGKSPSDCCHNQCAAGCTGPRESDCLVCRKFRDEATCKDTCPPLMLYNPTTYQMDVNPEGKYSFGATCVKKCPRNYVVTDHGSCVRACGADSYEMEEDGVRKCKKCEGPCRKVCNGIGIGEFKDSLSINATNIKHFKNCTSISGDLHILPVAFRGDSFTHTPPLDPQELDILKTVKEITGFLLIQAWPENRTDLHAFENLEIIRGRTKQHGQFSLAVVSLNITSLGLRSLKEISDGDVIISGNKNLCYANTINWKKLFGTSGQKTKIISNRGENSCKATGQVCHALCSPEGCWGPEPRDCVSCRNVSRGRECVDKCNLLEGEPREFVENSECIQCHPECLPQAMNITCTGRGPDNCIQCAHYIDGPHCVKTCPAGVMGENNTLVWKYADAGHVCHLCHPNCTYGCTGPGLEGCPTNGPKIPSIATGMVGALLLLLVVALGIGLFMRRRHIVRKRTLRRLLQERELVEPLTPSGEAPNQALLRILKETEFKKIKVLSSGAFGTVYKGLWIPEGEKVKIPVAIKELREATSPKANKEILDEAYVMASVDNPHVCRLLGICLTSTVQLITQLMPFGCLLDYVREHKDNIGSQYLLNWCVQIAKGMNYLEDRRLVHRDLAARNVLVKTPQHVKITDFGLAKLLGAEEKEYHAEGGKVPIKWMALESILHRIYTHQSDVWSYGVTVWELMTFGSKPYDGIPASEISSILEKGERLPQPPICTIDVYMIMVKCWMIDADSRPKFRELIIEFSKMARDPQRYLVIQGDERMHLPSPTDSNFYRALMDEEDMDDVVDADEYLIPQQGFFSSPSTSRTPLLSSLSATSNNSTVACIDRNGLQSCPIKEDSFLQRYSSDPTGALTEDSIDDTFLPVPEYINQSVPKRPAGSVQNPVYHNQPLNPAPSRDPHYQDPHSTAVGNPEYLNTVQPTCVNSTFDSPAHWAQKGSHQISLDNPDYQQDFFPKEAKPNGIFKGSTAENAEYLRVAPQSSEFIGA
Chain of Ribosomal protein S6 kinase beta-1 (P23443 whole entry, looked up): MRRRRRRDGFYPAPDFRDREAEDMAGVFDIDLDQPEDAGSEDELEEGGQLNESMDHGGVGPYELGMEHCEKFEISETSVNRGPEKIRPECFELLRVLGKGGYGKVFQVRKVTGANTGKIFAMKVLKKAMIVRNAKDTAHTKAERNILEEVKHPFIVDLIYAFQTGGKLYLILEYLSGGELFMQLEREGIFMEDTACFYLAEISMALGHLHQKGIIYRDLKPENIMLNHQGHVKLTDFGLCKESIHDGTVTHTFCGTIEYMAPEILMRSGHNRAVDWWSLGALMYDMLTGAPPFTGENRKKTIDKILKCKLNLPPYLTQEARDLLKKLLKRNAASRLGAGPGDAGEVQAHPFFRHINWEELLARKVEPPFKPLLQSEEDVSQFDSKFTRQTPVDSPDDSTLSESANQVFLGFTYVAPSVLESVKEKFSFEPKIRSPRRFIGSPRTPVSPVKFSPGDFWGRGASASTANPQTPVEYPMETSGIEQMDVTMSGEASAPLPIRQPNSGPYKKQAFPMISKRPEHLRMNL
Chain of Epidermal growth factor receptor (Homo sapiens), P00533 [L861Q] (P00533 whole entry L861Q): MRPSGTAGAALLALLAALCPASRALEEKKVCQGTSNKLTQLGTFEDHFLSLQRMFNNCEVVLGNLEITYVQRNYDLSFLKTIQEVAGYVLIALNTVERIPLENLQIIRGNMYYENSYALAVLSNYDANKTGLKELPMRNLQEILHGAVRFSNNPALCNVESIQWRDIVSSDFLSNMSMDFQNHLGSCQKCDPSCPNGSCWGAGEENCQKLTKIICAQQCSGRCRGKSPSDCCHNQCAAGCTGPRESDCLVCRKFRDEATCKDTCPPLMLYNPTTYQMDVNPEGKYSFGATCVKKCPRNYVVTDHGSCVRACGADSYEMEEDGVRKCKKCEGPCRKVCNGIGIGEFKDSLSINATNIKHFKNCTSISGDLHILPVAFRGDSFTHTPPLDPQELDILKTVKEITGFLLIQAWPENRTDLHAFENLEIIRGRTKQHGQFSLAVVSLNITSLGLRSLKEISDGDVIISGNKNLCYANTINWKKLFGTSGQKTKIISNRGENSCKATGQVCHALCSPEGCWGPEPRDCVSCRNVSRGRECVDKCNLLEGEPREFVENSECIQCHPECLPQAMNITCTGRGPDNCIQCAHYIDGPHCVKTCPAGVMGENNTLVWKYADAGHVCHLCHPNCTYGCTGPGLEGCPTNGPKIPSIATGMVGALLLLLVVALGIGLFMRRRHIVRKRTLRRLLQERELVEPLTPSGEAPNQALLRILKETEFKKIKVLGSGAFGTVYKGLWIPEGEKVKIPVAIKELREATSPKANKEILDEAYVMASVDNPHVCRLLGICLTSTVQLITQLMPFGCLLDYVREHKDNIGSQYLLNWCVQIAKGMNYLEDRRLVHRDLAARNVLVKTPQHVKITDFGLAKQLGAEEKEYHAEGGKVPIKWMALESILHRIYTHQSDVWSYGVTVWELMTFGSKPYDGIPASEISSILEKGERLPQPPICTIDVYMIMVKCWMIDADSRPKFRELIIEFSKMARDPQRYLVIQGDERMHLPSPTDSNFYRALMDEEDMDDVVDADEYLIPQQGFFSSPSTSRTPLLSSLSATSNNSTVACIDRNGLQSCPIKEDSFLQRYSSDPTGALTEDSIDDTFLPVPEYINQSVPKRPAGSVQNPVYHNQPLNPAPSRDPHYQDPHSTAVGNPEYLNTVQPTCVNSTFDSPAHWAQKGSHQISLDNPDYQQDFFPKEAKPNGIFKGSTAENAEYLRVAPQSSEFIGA
Chain of 5-hydroxytryptamine receptor 5A (Homo sapiens) (P47898 whole entry): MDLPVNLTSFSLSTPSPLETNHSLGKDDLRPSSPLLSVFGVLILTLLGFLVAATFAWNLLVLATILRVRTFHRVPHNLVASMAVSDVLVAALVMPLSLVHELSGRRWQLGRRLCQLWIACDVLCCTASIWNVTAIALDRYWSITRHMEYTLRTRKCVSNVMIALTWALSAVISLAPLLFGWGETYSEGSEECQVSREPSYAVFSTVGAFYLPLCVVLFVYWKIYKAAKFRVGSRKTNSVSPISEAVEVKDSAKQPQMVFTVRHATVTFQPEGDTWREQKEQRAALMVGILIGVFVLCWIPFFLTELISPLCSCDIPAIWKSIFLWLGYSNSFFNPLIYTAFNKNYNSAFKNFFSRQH
Chain of Atypical kinase COQ8A, mitochondrial (Q8NI60 163-647 limits assumed): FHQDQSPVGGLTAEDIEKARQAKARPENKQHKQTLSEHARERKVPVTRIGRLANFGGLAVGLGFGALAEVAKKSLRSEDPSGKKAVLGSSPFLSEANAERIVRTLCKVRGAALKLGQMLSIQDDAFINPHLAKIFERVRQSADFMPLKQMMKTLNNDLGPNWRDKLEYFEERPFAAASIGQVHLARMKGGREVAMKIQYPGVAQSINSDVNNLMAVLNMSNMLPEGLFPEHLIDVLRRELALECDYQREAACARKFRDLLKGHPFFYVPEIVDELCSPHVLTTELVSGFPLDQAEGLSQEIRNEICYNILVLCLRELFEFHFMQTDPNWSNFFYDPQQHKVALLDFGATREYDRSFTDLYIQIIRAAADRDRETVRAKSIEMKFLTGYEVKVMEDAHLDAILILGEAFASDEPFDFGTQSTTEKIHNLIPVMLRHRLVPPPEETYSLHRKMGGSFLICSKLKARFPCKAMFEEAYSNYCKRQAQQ

## CC(=O)Nc1cccc(-n2c(=O)n(C3CC3)c(=O)c3c(Nc4ccc(I)cc4F)n(C)c(=O)c(C)c32)c1
[1]
  % of control: 102%

## O=C(NOC[C@H](O)CO)c1ccc(F)c(F)c1Nc1ccc(I)cc1F
[2]
  % of control: 99%
[3]
  % of control: 100%

## Nc1cnc(N2CCc3cc(S(=O)(=O)Nc4c(F)cc(Cl)cc4F)cc(N4CCCC4=O)c32)nc1 [TP-020n]
[4]
  % of control: 100%
[5]
  % of inhibition: -4.87%
[6]
  % of control: 100%

## CC[C@@H]1[C@H](F)C(=O)N[C@@H]1COc1nccc2cc(C(N)=O)c(OC)cc12 [ZIMLOVISERTIB]
[7]
  % of inhibition: 13.1%
[8]
  % of inhibition: -18.2%

## COCC(=O)NC/C=C/c1ccc2ncnc(Nc3ccc(Oc4ccc(C)nc4)c(C)c3)c2c1 [CP-724714]
[9]
  % of control: 89%

## O[C@H]1CC[C@H](Nc2ncc3nc(Nc4c(F)cc(F)cc4F)n([C@H]4CCOC4)c3n2)CC1
[10]
  % of control: 92%
[11]
  % of control: 35%

## N#Cc1cccc(-c2c[nH]c3ncnc(N4CCOCC4)c23)c1
[12]
  % of inhibition: -12%
[13]
  % of inhibition: 19%
[14]
  % of inhibition: 10%

## Cc1ccc(-c2ccc3c(ccc4sc5c(c43)NC[C@@H](C)NC5=O)n2)cn1
[15]
  % of inhibition: 8%
[16]
  % of inhibition: 0%

## CN(C)CCOc1ccc(-c2nc(-c3ccncc3)c(-c3ccc4c(c3)CC/C4=N\O)[nH]2)cc1
[17]
  % of control: 100%

## CNC(=O)Nc1ccc(-c2nc(N3CC4CCC(C3)O4)c3cnn(C4CCC5(CC4)OCCO5)c3n2)cc1
[18]
  % of control: 80%
[19]
  % of control: 53%
[20]
  % of control: 80%
[21]
  % of control: 38%
[22]
  % of control: 69%
[23]
  % of control: 100%
[24]
  % of control: 62%
[25]
  % of control: 64%
[26]
  % of control: 68%
[27]
  % of control: 82%
[28]
  % of inhibition: 4%

## C=CC(=O)Nc1cccc(C(=O)Nc2ccc(Nc3cc(-c4[nH]c(SC)nc4C)ccn3)cc2)c1
[29]; at 1 µM
  % of control: 95%
[29]; at 5 µM
  % of control: 97%
